Measured values as given in article PMC6251916, “CKD-506, a novel HDAC6-selective inhibitor, improves renal outcomes and survival in a mouse model of systemic lupus erythematosus” (Scientific Reports, 2018).

System: NZB/W F1 female mice
Experiment: Murine SLE model: cytokine levels in kidney extracts
Assay type: in vivo, mouse
Details: at autopsy, mean ± SD
Description: The kidneys were weighed and then transferred into dPBS (Welgene) supplemented with anti-protease Complete TM cocktail (Boehringer) using 12.5 μl of dPBS per milligram of wet weight tissue. Samples were homogenized twice using an Automill TK-AM5 freeze-crushing cell homogenizer (W 280 mm × D 390 mm × H 290 mm, Tokken Inc., Chiba, Japan) at 1,400 rpm for 90 seconds and then centrifuged at 16,000 × g for 15 min at 4 °C. The supernatants were collected and total protein concentrations were determined in the kidney extracts using a bicinchoninic acid (BCA) protein assay kit™ (Pierce). Total protein concentrations of the kidney extracts were adjusted to 2 mg/dl and used for the analysis of IFN-γ, IL-10, IL-15, IL-17, IL-1β, IL-4, IL-6, IP-10, MCP-1, CCL4, RANTES, TNF-α and sCD40L with Milliplex® MAP Kits (Millipore).

[1] = group D: CKD-506 10 mg/kg/day, n = 10
[2] = group E: CKD-506 30 mg/kg/day, n = 14

Substance: CKD-506
- Kidney extract CCL2 [1]: 61.30 ± 70.39 pg/mL
- Kidney extract CCL4 [1]: 12.77 ± 23.90 pg/mL
- Kidney extract IFN-γ [1]: 17.46 ± 15.04 pg/mL
- Kidney extract IL-1β [1]: 2.09 ± 2.68 pg/mL
- Kidney extract IL-4 [1]: 0.01 ± 0.02 pg/mL
- Kidney extract IL-6 [1]: 3.99 ± 2.72 pg/mL
- Kidney extract IL-10 [1]: 9.43 ± 4.36 pg/mL
- Kidney extract IL-15 [1]: 34.25 ± 21.24 pg/mL
- Kidney extract IP-10 [1]: 98.47 ± 44.61 pg/mL
- Kidney extract RANTES [1]: 31.17 ± 24.93 pg/mL
- Kidney extract TNF-α [1]: Not detected
- Kidney extract CCL2 [2]: 21.90 ± 17.10 pg/mL
- Kidney extract CCL4 [2]: 1.70 ± 4.61 pg/mL
- Kidney extract IFN-γ [2]: 13.12 ± 4.85 pg/mL
- Kidney extract IL-1β [2]: 1.18 ± 2.19 pg/mL
- Kidney extract IL-4 [2]: 0.02 ± 0.05 pg/mL
- Kidney extract IL-6 [2]: 1.65 ± 0.82 pg/mL
- Kidney extract IL-10 [2]: 9.62 ± 2.42 pg/mL
- Kidney extract IL-15 [2]: 42.42 ± 16.89 pg/mL
- Kidney extract IP-10 [2]: 63.40 ± 21.06 pg/mL
- Kidney extract RANTES [2]: 9.30 ± 7.86 pg/mL
- Kidney extract TNF-α [2]: Not detected
- Kidney extract CCL2 (group F: 50 mg/kg/day, n = 14): 3.15 ± 6.10 pg/mL
- Kidney extract CCL4 (group F: 50 mg/kg/day, n = 14): Not detected*
- Kidney extract IFN-γ (group F: 50 mg/kg/day, n = 14): 6.77 ± 4.06 pg/mL
- Kidney extract IL-1β (group F: 50 mg/kg/day, n = 14): 0.26 ± 0.60 pg/mL
- Kidney extract IL-4 (group F: 50 mg/kg/day, n = 14): Not detected*
- Kidney extract IL-6 (group F: 50 mg/kg/day, n = 14): 0.43 ± 0.45 pg/mL
- Kidney extract IL-10 (group F: 50 mg/kg/day, n = 14): 7.60 ± 2.08 pg/mL
- Kidney extract IL-15 (group F: 50 mg/kg/day, n = 14): 32.82 ± 11.63 pg/mL
- Kidney extract IP-10 (group F: 50 mg/kg/day, n = 14): 43.90 ± 14.50 pg/mL
- Kidney extract RANTES (group F: 50 mg/kg/day, n = 14): 3.80 ± 2.17 pg/mL
- Kidney extract TNF-α (group F: 50 mg/kg/day, n = 14): Not detected
